Key:
[1] = target: Phosphatidylinositol 4,5-bisphosphate 3-kinase catalytic subunit delta isoform (Homo sapiens) (UniProt O00329); details: Compound concentration 1000.0 nM
[2] = target: Sodium-dependent serotonin transporter (Homo sapiens) (UniProt P31645); details: Compound concentration 10.0 uM
[3] = target: Receptor-type tyrosine-protein kinase FLT3 (Homo sapiens) (UniProt P36888); details: Compound concentration 1000.0 nM
[4] = target: T1, Alpha-1A adrenergic receptor (Homo sapiens) (UniProt P35348); details: Compound concentration 10.0 uM
T1 sequence (whole entry): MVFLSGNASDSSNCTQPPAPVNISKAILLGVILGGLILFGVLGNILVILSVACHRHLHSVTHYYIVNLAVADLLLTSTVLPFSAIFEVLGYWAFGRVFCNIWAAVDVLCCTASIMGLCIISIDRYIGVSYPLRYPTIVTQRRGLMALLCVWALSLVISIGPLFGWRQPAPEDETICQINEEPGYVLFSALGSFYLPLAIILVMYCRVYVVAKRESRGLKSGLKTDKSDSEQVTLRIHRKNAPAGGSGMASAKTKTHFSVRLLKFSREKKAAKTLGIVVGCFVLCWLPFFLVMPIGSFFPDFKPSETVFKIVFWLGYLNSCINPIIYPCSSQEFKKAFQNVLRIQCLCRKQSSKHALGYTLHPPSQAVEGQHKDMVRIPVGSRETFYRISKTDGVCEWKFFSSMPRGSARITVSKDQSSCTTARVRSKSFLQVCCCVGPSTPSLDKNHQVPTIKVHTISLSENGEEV

[5] = target: Focal adhesion kinase 1 (Homo sapiens) (UniProt Q05397); details: Compound concentration 1000.0 nM
[6] = target: Protein kinase C iota type (Homo sapiens) (UniProt P41743); details: Compound concentration 1000.0 nM
[7] = target: Serine/threonine-protein kinase SIK2 (Homo sapiens) (UniProt Q9H0K1); details: Compound concentration 1000.0 nM
[8] = target: Melanocortin receptor 4 (Homo sapiens) (UniProt P32245); assay: MC4 (h) Eurofins-Cerep Cellular and Nuclear Receptor Functional Assays; details: Compound concentration 10.0 uM
[9] = target: T2, Alpha-1D adrenergic receptor (Homo sapiens) (UniProt P25100); details: Compound concentration 10.0 uM
T2 sequence (whole entry): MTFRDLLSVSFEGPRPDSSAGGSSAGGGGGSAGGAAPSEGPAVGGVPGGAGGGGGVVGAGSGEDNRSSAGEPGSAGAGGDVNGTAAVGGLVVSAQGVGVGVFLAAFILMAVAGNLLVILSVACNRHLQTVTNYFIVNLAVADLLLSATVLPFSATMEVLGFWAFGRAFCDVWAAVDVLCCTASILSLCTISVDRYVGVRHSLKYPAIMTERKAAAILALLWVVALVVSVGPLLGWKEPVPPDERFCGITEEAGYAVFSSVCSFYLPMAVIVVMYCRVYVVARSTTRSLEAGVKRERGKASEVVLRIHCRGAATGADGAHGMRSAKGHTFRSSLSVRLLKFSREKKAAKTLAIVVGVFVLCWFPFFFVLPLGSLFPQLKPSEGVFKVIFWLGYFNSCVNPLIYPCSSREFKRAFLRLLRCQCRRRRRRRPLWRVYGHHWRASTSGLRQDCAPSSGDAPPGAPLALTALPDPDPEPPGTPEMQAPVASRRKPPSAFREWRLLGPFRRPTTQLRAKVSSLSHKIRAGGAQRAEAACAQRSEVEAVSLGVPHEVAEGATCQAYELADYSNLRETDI

[10] = target: Serine/threonine-protein kinase pim-1 (Homo sapiens) (UniProt P11309); details: Compound concentration 1000.0 nM
[11] = target: Tyrosine-protein kinase Lck (Homo sapiens) (UniProt P06239); details: Compound concentration 1000.0 nM
[12] = target: Calcium/calmodulin-dependent protein kinase type 1G (Homo sapiens) (UniProt Q96NX5); details: Compound concentration 1000.0 nM
[13] = target: Ribosomal protein S6 kinase alpha-2 (Homo sapiens) (UniProt Q15349); details: Compound concentration 1000.0 nM
[14] = target: Leucine-rich repeat serine/threonine-protein kinase 2 (Homo sapiens) (UniProt Q5S007); details: Compound concentration 1000.0 nM
[15] = target: Cyclin-dependent kinase 4 (Homo sapiens) (UniProt P11802); details: Compound concentration 1000.0 nM
[16] = target: Serine/threonine-protein kinase 32B (Homo sapiens) (UniProt Q9NY57); details: Compound concentration 1000.0 nM
[17] = target: Serine/threonine-protein kinase ULK2 (Homo sapiens) (UniProt Q8IYT8); details: Compound concentration 1000.0 nM
[18] = target: NUAK family SNF1-like kinase 1 (Homo sapiens) (UniProt O60285); details: Compound concentration 1000.0 nM
[19] = target: Serine/threonine-protein kinase TAO2 (Homo sapiens) (UniProt Q9UL54); details: Compound concentration 1000.0 nM
[20] = target: Cyclin-dependent kinase 4 (Homo sapiens) (UniProt P11802); details: Compound concentration 1000.0 nM; remark: listed apart in the source
[21] = target: Serine/threonine-protein kinase RIO1 (Homo sapiens) (UniProt Q9BRS2); details: Compound concentration 1000.0 nM
[22] = target: Tyrosine-protein kinase FRK (Homo sapiens) (UniProt P42685); details: Compound concentration 1000.0 nM
[23] = target: Serine/threonine-protein kinase DCLK1 (Homo sapiens) (UniProt O15075); details: Compound concentration 1000.0 nM
[24] = target: RAF proto-oncogene serine/threonine-protein kinase (Homo sapiens) (UniProt P04049); details: Compound concentration 1000.0 nM
[25] = target: Myosin light chain kinase 2, skeletal/cardiac muscle (Homo sapiens) (UniProt Q9H1R3); details: Compound concentration 1000.0 nM
[26] = target: Serine/threonine-protein kinase RIO3 (Homo sapiens) (UniProt O14730); details: Compound concentration 1000.0 nM
[27] = target: Serine/threonine-protein kinase pim-3 (Homo sapiens) (UniProt Q86V86); details: Compound concentration 1000.0 nM
[28] = target: Casein kinase I isoform delta (Homo sapiens) (UniProt P48730); details: Compound concentration 1000.0 nM
[29] = target: Serine/threonine-protein kinase 33 (Homo sapiens) (UniProt Q9BYT3); details: Compound concentration 1000.0 nM
[30] = tested on: Tyrosine-protein kinase ABL1 (Homo sapiens), P00519 [F317L]; details: Compound concentration 1000.0 nM
[31] = target: Serine/threonine-protein kinase 26 (Homo sapiens) (UniProt Q9P289); details: Compound concentration 1000.0 nM

Chain of Melanocortin receptor 4 (Homo sapiens) (P32245 whole entry): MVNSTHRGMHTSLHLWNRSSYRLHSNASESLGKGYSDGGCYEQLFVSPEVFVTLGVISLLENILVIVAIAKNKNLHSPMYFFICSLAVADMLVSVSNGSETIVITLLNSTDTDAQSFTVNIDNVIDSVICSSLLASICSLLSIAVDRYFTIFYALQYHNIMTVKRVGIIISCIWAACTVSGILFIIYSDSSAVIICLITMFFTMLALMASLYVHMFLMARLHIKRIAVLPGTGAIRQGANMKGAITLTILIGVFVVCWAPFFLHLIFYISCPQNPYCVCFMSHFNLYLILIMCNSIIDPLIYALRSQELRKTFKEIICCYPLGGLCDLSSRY
Chain of Cyclin-dependent kinase 4 (Homo sapiens) (P11802 whole entry): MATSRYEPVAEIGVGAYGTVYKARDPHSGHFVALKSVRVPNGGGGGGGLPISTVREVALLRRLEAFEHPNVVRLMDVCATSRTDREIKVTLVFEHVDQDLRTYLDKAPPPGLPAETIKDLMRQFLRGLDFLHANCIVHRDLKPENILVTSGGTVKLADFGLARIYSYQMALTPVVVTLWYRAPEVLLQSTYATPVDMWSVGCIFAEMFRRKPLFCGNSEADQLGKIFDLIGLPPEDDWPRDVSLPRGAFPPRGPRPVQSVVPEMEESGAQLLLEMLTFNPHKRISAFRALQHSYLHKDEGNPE
Chain of RAF proto-oncogene serine/threonine-protein kinase (Homo sapiens) (P04049 whole entry): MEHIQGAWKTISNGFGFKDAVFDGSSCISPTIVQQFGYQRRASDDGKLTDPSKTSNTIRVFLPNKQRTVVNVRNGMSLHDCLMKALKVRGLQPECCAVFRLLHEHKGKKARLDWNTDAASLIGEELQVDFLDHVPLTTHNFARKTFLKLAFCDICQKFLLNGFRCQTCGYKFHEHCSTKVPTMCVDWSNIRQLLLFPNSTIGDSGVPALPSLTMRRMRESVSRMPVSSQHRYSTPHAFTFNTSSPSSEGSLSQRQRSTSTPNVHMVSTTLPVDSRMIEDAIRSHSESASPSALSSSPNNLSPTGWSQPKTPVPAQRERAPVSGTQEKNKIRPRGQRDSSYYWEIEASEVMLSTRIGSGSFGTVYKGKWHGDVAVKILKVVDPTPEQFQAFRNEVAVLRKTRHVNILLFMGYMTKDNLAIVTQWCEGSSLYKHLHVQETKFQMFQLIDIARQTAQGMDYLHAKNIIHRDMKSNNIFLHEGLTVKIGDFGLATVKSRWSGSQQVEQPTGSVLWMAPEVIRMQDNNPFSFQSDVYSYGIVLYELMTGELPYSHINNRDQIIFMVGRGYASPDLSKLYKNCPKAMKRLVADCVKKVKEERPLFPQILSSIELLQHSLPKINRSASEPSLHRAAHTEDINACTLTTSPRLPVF
Chain of Receptor-type tyrosine-protein kinase FLT3 (Homo sapiens) (P36888 whole entry): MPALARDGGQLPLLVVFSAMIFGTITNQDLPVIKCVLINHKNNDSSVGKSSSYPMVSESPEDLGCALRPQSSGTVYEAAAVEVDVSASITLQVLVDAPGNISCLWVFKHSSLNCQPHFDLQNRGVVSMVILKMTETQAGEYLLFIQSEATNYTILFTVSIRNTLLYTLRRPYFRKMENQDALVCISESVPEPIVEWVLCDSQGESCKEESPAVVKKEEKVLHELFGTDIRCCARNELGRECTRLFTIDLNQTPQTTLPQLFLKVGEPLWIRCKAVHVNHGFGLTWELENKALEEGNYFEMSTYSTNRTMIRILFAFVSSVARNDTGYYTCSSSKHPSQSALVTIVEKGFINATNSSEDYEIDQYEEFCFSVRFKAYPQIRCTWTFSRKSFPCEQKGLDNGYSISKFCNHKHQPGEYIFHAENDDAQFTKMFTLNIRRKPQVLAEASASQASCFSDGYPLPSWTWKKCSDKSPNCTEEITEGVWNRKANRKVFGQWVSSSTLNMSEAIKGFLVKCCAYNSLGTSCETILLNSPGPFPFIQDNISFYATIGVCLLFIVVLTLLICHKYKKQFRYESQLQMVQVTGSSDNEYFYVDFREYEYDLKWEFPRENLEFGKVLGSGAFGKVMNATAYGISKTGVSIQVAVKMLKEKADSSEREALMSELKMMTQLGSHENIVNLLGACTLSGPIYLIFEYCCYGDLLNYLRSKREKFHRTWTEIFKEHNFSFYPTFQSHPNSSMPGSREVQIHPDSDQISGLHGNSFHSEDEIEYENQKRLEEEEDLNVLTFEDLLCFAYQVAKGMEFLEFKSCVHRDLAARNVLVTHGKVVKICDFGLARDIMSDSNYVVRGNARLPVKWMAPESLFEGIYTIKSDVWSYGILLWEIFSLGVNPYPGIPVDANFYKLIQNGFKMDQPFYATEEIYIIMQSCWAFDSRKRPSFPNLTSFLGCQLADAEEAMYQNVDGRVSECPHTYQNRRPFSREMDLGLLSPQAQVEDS
Chain of Serine/threonine-protein kinase pim-1 (Homo sapiens) (P11309 whole entry, looked up): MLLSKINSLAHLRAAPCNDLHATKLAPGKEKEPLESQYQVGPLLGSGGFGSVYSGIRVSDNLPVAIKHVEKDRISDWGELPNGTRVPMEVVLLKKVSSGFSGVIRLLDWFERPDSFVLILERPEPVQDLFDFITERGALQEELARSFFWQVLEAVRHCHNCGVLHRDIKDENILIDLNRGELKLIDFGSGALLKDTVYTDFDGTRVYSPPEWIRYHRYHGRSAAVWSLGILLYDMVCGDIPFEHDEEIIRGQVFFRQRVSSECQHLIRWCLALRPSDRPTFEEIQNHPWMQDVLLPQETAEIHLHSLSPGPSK
Chain of Tyrosine-protein kinase Lck (Homo sapiens) (P06239 2-509 limits assumed): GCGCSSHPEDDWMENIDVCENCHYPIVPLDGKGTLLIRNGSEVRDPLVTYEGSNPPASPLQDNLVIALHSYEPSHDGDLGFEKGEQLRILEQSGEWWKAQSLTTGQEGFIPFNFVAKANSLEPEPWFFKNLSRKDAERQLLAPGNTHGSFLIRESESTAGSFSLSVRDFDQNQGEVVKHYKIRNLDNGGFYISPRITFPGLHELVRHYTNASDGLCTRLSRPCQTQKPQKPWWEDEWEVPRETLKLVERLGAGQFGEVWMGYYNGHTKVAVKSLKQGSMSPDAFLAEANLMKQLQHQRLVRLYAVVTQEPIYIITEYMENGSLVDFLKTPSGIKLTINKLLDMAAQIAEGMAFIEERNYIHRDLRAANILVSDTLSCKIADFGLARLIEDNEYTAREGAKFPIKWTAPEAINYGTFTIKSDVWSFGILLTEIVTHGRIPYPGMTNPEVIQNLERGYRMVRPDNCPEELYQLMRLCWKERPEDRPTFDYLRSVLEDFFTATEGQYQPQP
Chain of Calcium/calmodulin-dependent protein kinase type 1G (Homo sapiens) (Q96NX5 whole entry): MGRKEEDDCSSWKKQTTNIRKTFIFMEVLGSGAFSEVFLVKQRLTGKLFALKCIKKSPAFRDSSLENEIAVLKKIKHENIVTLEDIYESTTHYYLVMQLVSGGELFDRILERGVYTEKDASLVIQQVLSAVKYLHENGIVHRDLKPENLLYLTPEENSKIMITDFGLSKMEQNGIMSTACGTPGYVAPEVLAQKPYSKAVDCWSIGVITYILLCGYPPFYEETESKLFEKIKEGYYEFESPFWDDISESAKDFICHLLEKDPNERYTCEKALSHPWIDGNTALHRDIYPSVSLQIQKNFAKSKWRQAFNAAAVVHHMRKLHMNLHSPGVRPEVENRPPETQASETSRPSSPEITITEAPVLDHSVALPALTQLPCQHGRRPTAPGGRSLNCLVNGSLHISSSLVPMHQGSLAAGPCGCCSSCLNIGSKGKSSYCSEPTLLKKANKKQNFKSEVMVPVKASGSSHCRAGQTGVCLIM
Chain of Phosphatidylinositol 4,5-bisphosphate 3-kinase catalytic subunit delta isoform (Homo sapiens) (O00329 whole entry, canonical isoform): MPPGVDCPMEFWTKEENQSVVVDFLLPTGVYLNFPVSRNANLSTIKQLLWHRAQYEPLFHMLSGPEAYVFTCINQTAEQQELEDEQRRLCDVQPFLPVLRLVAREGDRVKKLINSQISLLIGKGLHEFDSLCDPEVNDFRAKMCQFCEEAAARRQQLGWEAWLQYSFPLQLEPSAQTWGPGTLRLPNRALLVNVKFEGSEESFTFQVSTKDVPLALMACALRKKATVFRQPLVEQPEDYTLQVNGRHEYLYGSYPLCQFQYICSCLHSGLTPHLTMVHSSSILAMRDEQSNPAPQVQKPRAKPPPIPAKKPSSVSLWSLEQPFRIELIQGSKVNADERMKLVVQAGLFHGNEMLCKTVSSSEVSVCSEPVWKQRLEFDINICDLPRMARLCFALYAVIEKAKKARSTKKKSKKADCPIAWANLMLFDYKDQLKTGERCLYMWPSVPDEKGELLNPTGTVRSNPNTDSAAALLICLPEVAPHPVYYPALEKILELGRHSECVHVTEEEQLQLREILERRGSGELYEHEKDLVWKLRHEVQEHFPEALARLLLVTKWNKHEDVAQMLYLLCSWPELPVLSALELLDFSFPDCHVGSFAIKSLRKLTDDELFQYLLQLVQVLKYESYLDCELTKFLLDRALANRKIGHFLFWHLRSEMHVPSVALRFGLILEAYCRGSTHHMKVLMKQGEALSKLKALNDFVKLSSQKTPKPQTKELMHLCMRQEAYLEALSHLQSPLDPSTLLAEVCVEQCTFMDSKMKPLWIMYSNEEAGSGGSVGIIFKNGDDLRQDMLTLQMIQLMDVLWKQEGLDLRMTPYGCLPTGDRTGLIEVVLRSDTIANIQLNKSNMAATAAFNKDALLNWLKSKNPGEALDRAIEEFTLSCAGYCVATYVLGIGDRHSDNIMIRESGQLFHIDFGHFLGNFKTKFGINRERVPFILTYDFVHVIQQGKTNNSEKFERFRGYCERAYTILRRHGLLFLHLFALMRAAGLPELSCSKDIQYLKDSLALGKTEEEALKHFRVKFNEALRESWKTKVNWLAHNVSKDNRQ

| Compound | residual activity [1] [%] | inhibition [2] [%] | residual activity [3] [%] | inhibition [4] [%] | residual activity [5] [%] | residual activity [6] [%] | residual activity [7] [%] | % Inhibition of Control Agonist Response (Mean n=2) [8] [%] | % of Control Agonist Response (Mean n=2) [8] [%] | inhibition [9] [%] | residual activity [10] [%] | residual activity [11] [%] | residual activity [12] [%] | residual activity [13] [%] | residual activity [14] [%] | residual activity [15] [%] | residual activity [16] [%] | residual activity [17] [%] | residual activity [18] [%] | residual activity [19] [%] | further results |
| --- | --- | --- | --- | --- | --- | --- | --- | --- | --- | --- | --- | --- | --- | --- | --- | --- | --- | --- | --- | --- | --- |
| O=C(N1CCS(=O)(=O)CC1)N1C[C@H](c2ccc(OC(F)(F)F)cc2)C[C@H](c2nc(C3CC3)no2)C1 [BAY-386] | 97 | 8.68 | 96 | -5 | 93 | 100 | 100 | -8.1 | -1.2 | 2.45 | 100 | 100 | 100 | 100 | 100 | 88 | 100 | 75 | 97 | 100 | residual activity [20]: 96%; residual activity [21]: 100%; residual activity [22]: 100%; residual activity [23]: 100%; residual activity [24]: 100%; residual activity [25]: 100%; residual activity [26]: 85%; residual activity [27]: 100%; residual activity [28]: 100%; residual activity [29]: 99%; residual activity [30]: 89%; residual activity [31]: 94% |
| Cc1noc([C@H]2C[C@@H](c3ccc(C(F)(F)F)cc3)CN(C(=O)N3CCS(=O)(=O)C3)C2)n1 [BAY-448] | 100 | 5.57 | 100 | -4.12 | 100 | 100 | 100 | 14.3 | -1.8 | -1.84 | 100 | 100 | 100 | 100 | 65 | 100 | 68 | 100 | 100 | 76 | residual activity [20]: 100%; residual activity [21]: 100%; residual activity [22]: 100%; residual activity [23]: 75%; residual activity [24]: 100%; residual activity [25]: 100%; residual activity [26]: 100%; residual activity [27]: 91%; residual activity [28]: 100%; residual activity [29]: 100%; residual activity [30]: 100%; residual activity [31]: 74% |

Reference: ChEMBL document CHEMBL4507269, “Data for DCP probe BAY-386” (2021)
